For assay [1], the system named is X4-tropic HIV-1 NL4-3. The following applies: read-out: IC50 NL4-3; P4-CCR5 cells, HIV-1 NL4-3, peptide 2 h before infection, readout three days after infection. The text has this: (§1) These cells contain the β-galactosidase reporter gene under the control of the HIV-1 promoter. Thus, activation of the β-galactosidase reporter gene allows to measure the efficiency of HIV-1 infection and thus to quantitate the potency of HIV-1 inhibitors (Detheux M. et al., 2000; Journal of Experimental Medicine 192, 1501-1508; Münch et al., 2002; Antimicrobial Agents and Chemotherapy 46, 982-990).
(§2) To perform a typical infection assay, P4-CCR5 cells (Charneau et al., 1994; Journal of Molecular Biology 241, 651-662; Charneau et al., Virology. 1994 205, 247-53) were kept in RPMI 1640 medium supplemented with 10 volume % FCS. This cell line coexpresses CD4 and both HIV-1 coreceptors CCR5 and CXCR4 and contains the β-galactosidase gene under the control of the HIV-1 promoter. Virus stocks were generated by the calcium coprecipitation method as described (Detheux et al., J Exp Med. 192:1501-8; 2000), and the p24 antigen levels were quantitated with an HIV p24 ELISA kit obtained through the NIH AIDS Reagent Program. Cells were seeded in flat-bottomed 96-well dishes, cultured overnight, and incubated with the different doses of peptide for 2 h before infection with virus containing 1 ng of p24 antigen in a total volume of […] of medium. After overnight incubation, cells were washed twice and cultivated in fresh culture medium without inhibitory peptide. Three days after infection the cells were lysed, and infectivity was quantitated using the Galacto-Light Plus™ chemiluminescence reporter assay kit (Tropix, Bedford, Mass.) as recommended by the manufacturer. All infections were performed in quintuplicate.

In assay [2] the test system is HIV-1 NL4-3 DTV. The following applies: read-out: IC50 DTV, P4-CCR5 cells, peptide 2 h before infection, readout three days after infection.
Excerpt: as §1, §2

pIC50: −log10 of the molar value. Positions of bridges follow the written chain, without caps; N, C: chain ends. Non-standard residues stand in square brackets, D forms with d. Residues, ends and D or L forms follow the SMILES beside them. Tic = O=C(O)[C@@H]1Cc2ccccc2CN1; dTic = O=C(O)[C@H]1Cc2ccccc2CN1

In general, pIC50 refers to the IC50 on a negative log10 scale, so that one unit is a factor of ten. On to `CC[C@H](C)[C@H](NC(=O)[C@H](C)NC(=O)[C@H](CCC(=O)O)NC(=O)[C@@H](N)CC(C)C)C(=O)N1CCC[C@H]1C(=O)N[C@H]1CSSC[C@@H](C(=O)N[C@H](C(=O)NCC(=O)N[C@@H](Cc2ccccc2)C(=O)NCC(=O)N[C@@H](CCCCN)C(=O)N2CCC[C@H]2C(=O)N[C@@H](Cc2ccccc2)C(=O)N[C@H](C(=O)N[C@@H](Cc2ccccc2)C(=O)O)C(C)C)C(C)C)NC(=O)[C@@H]2CCCN2C(=O)[C@@H]2CCCN2C(=O)[C@H]([C@@H](C)CC)NC(=O)[C@H](CO)NC1=O` [VIR-162] (H-LEAIPCSIPPCVGFGKPFVF-OH; disulfide 6-11), for which the pIC50 is 6.18 in assay [1] and 6.02 in assay [2].

As for `CC[C@H](C)[C@H](NC(=O)[C@H](C)NC(=O)[C@H](CCC(=O)O)NC(=O)[C@@H](N)CC(C)C)C(=O)N1CCC[C@H]1C(=O)N[C@H]1CSSC[C@@H](C(=O)N[C@H](C(=O)N[C@@H](CC(C)C)C(=O)N[C@@H](Cc2ccccc2)C(=O)N[C@@H](CC(N)=O)C(=O)N[C@@H](CCCCN)C(=O)N2CCC[C@H]2C(=O)N[C@@H](Cc2ccccc2)C(=O)N[C@H](C(=O)N[C@@H](Cc2ccccc2)C(=O)O)C(C)C)C(C)C)NC(=O)[C@@H]2CCCN2C(=O)[C@@H]2CCCN2C(=O)[C@H]([C@@H](C)CC)NC(=O)[C@H](CO)NC1=O` [VIR-163] (H-LEAIPCSIPPCVLFNKPFVF-OH; disulfide 6-11), the pIC50 in assay [1] is 6.12; in assay [2], 6.54.

In the case of `CC[C@H](C)[C@H](NC(=O)[C@H](C)NC(=O)[C@H](CCC(=O)O)NC(=O)[C@@H](N)CC(C)C)C(=O)N1CCC[C@H]1C(=O)N[C@@H](CCSC)C(=O)N[C@@H](CO)C(=O)N[C@H](C(=O)N1CCC[C@H]1C(=O)N1CCC[C@@H]1C(=O)N[C@@H](CCC(=O)O)C(=O)N[C@H](C(=O)NCC(=O)N[C@@H](Cc1ccccc1)C(=O)NCC(=O)N[C@@H](CCCCN)C(=O)N1CCC[C@H]1C(=O)N[C@@H](Cc1ccccc1)C(=O)N[C@H](C(=O)N[C@@H](Cc1ccccc1)C(=O)O)C(C)C)C(C)C)[C@@H](C)CC` [VIR-190, LEAIPMSIPpEVGFGKPFVF] (H-LEAIPMSIP[dP]EVGFGKPFVF-OH), the results for the pIC50 in assay [1] and in assay [2] were 5.74 and 5.51, respectively.

Consider `CC[C@H](C)[C@H](NC(=O)[C@H](C)NC(=O)[C@H](CCC(=O)O)NC(=O)[C@@H](N)CC(C)C)C(=O)N1CCC[C@H]1C(=O)N[C@@H](CCSC)C(=O)N[C@@H](CO)C(=O)N[C@H](C(=O)N1CCC[C@H]1C(=O)N1CCC[C@@H]1C(=O)N[C@@H](CCC(=O)O)C(=O)N[C@H](C(=O)N[C@@H](CC(C)C)C(=O)N[C@@H](Cc1ccccc1)C(=O)NCC(=O)N[C@@H](CCCCN)C(=O)N1CCC[C@H]1C(=O)N[C@@H](Cc1ccccc1)C(=O)N[C@H](C(=O)N[C@@H](Cc1ccccc1)C(=O)O)C(C)C)C(C)C)[C@@H](C)CC` [VIR-191, LEAIPMSIPpEVLFGKPFVF] (H-LEAIPMSIP[dP]EVLFGKPFVF-OH), for which the pIC50 in assay [1] is 5.75; in assay [2] it was 6.25.

Regarding `CC[C@H](C)[C@H](NC(=O)[C@@H]1CCCN1C(=O)[C@@H](NC(=O)[C@H](C)NC(=O)[C@H](CCC(=O)O)NC(=O)[C@@H](N)CC(C)C)[C@@H](C)CC)C(=O)N[C@@H](CO)C(=O)N[C@H](C(=O)N1CCC[C@H]1C(=O)N1CCC[C@@H]1C(=O)N[C@@H](CCC(=O)O)C(=O)N[C@H](C(=O)N1Cc2ccccc2C[C@@H]1C(=O)N[C@@H](Cc1ccccc1)C(=O)N[C@@H](CC(N)=O)C(=O)N[C@@H](CCCCN)C(=O)N1CCC[C@H]1C(=O)N[C@@H](Cc1ccccc1)C(=O)N[C@H](C(=O)N[C@@H](Cc1ccccc1)C(=O)O)C(C)C)C(C)C)[C@@H](C)CC` [VIR-445, LEAIPISIPpEV(D-Tic)FNKPFVF] (H-LEAIPISIP[dP]EV[dTic]FNKPFVF-OH), the negative-log IC50 (pIC50) in assay [1] is 6.65.

`CC[C@H](C)[C@H](NC(=O)[C@@H]1CCCN1C(=O)[C@@H](NC(=O)[C@H](C)NC(=O)[C@H](CCC(=O)O)NC(=O)[C@@H](N)CC(C)C)[C@@H](C)CC)C(=O)N[C@@H](CO)C(=O)N[C@H](C(=O)N1CCC[C@H]1C(=O)N1CCC[C@@H]1C(=O)N[C@@H](CCC(=O)O)C(=O)N[C@H](C(=O)N[C@@H](C)C(=O)N[C@@H](Cc1ccccc1)C(=O)N[C@@H](CC(N)=O)C(=O)N[C@@H](CCCCN)C(=O)N1Cc2ccccc2C[C@H]1C(=O)N[C@@H](Cc1ccccc1)C(=O)N[C@H](C(=O)N[C@@H](Cc1ccccc1)C(=O)O)C(C)C)C(C)C)[C@@H](C)CC` [VIR-447, LEAIPISIPpEVAFNK(L-Tic)FVF] (H-LEAIPISIP[dP]EVAFNK[Tic]FVF-OH): the pIC50 in assay [1] was 6.21.

Regarding `CC[C@H](C)[C@H](NC(=O)[C@H](CC(=O)O)NC(=O)[C@H](CCC(=O)O)NC(=O)[C@@H](N)CC(C)C)C(=O)N1CCC[C@H]1C(=O)N[C@@H](CCSC)C(=O)N[C@@H](CO)C(=O)N[C@H](C(=O)N1CCC[C@H]1C(=O)N1CCC[C@@H]1C(=O)N[C@@H](CCC(=O)O)C(=O)N[C@H](C(=O)N1Cc2ccccc2C[C@H]1C(=O)N[C@@H](Cc1ccccc1)C(=O)N[C@@H](CC(N)=O)C(=O)N[C@@H](CCCCN)C(=O)N1CCC[C@H]1C(=O)N[C@@H](Cc1ccccc1)C(=O)N[C@H](C(=O)N[C@@H](Cc1ccccc1)C(=O)O)C(C)C)C(C)C)[C@@H](C)CC` [VIR-452, LEDIPMSIPpEV(L-Tic)FNKPFVF] (H-LEDIPMSIP[dP]EV[Tic]FNKPFVF-OH), the pIC50 in assay [1] is 6.74.

Turning to `CC[C@H](C)[C@H](NC(=O)[C@@H]1CCCN1C(=O)[C@@H](NC(=O)[C@H](CC(=O)O)NC(=O)[C@H](CCC(=O)O)NC(=O)[C@@H](N)CC(C)C)[C@@H](C)CC)C(=O)NCC(=O)N[C@H](C(=O)N1CCC[C@H]1C(=O)N1CCC[C@@H]1C(=O)N[C@@H](CCC(=O)O)C(=O)N[C@@H](Cc1ccccc1)C(=O)N[C@@H](CC(C)C)C(=O)N[C@@H](Cc1ccccc1)C(=O)N[C@@H](CC(N)=O)C(=O)N[C@@H](CCCCN)C(=O)N1CCC[C@H]1C(=O)N[C@@H](Cc1ccccc1)C(=O)N[C@H](C(=O)N[C@@H](Cc1ccccc1)C(=O)O)C(C)C)[C@@H](C)CC` [VIR-479, LEDIPIGIPpEFLFNKPFVF] (H-LEDIPIGIP[dP]EFLFNKPFVF-OH), the pIC50 in assay [1] is 6.32.

For the compound `CC[C@H](C)[C@H](NC(=O)[C@@H]1CCCN1C(=O)[C@@H](NC(=O)[C@H](CCCCN)NC(=O)[C@H](CCC(=O)O)NC(=O)[C@@H](N)CC(C)C)[C@@H](C)CC)C(=O)NCC(=O)N[C@H](C(=O)N1CCC[C@H]1C(=O)N1CCC[C@@H]1C(=O)N[C@@H](CCC(=O)O)C(=O)N[C@H](C(=O)N[C@@H](C)C(=O)N[C@@H](Cc1ccccc1)C(=O)N[C@@H](CC(N)=O)C(=O)N[C@@H](CCCCN)C(=O)N1Cc2ccccc2C[C@H]1C(=O)N[C@@H](Cc1ccccc1)C(=O)N[C@H](C(=O)N[C@@H](Cc1ccccc1)C(=O)O)C(C)C)C(C)C)[C@@H](C)CC` [VIR-485, LEKIPIGIPpEVAFNK(L-Tic)FVF] (H-LEKIPIGIP[dP]EVAFNK[Tic]FVF-OH), the negative-log IC50 (pIC50) in assay [1] is 6.12.

As to `CC[C@H](C)[C@H](NC(=O)[C@@H]1CCCN1C(=O)[C@@H](NC(=O)[C@H](CC(=O)O)NC(=O)[C@H](CCC(=O)O)NC(=O)[C@@H](N)CC(C)C)[C@@H](C)CC)C(=O)NCC(=O)N[C@H](C(=O)N1CCC[C@H]1C(=O)N1CCC[C@@H]1C(=O)N[C@@H](CCC(=O)O)C(=O)N[C@H](C(=O)N1Cc2ccccc2C[C@H]1C(=O)N[C@@H](Cc1ccccc1)C(=O)N[C@@H](CC(N)=O)C(=O)N[C@@H](CCCCN)C(=O)N1CCC[C@H]1C(=O)N[C@@H](Cc1ccccc1)C(=O)N[C@H](C(=O)N[C@@H](Cc1ccccc1)C(=O)O)C(C)C)C(C)C)[C@@H](C)CC` [VIR-487, LEDIPIGIPpEV(L-Tic)FNKPFVF] (H-LEDIPIGIP[dP]EV[Tic]FNKPFVF-OH), in assay [1], the pIC50 is 6.59.

Take `CC[C@H](C)[C@H](NC(=O)[C@@H]1CCCN1C(=O)[C@@H](NC(=O)[C@H](CC(=O)O)NC(=O)[C@H](CCC(=O)O)NC(=O)[C@@H](N)CC(C)C)[C@@H](C)CC)C(=O)NCC(=O)N[C@H](C(=O)N1CCC[C@H]1C(=O)N1CCC[C@@H]1C(=O)N[C@@H](CCC(=O)O)C(=O)N[C@H](C(=O)N[C@@H](C)C(=O)N[C@@H](Cc1ccccc1)C(=O)N[C@@H](CC(N)=O)C(=O)N[C@@H](CCCCN)C(=O)N1Cc2ccccc2C[C@H]1C(=O)N[C@@H](Cc1ccccc1)C(=O)N[C@H](C(=O)N[C@@H](Cc1ccccc1)C(=O)O)C(C)C)C(C)C)[C@@H](C)CC` [VIR-488, LEDIPIGIPpEVAFNK(L-Tic)FVF] (H-LEDIPIGIP[dP]EVAFNK[Tic]FVF-OH): the negative-log IC50 (pIC50) in assay [1] was 6.38.

For `CC[C@H](C)[C@H](NC(=O)[C@H](C)NC(=O)[C@H](CCC(=O)O)NC(=O)[C@@H](N)CC(C)C)C(=O)N1CCC[C@H]1C(=O)N[C@H]1CSSC[C@@H](C(=O)N[C@@H](CC(C)C)C(=O)N[C@@H](Cc2ccccc2)C(=O)NCC(=O)N[C@@H](CCCCN)C(=O)N2CCC[C@H]2C(=O)N[C@@H](Cc2ccccc2)C(=O)N[C@H](C(=O)N[C@@H](Cc2ccccc2)C(=O)O)C(C)C)NC(=O)[C@H](CCC(=O)O)NC(=O)[C@@H]2CCCN2C(=O)[C@@H]2CCCN2C(=O)[C@H]([C@@H](C)CC)NC(=O)[C@H](CO)NC1=O` [VIR-570] (H-LEAIPCSIPPECLFGKPFVF-OH; disulfide 6-12), the pIC50 in assay [1] was 6.64.

H-LEAIPISIPPELAFAKPFVF-OH [VIR-286]: the pIC50 in assay [1] was 6.25.

Consider H-LEAIPISIPPEVFFGKPFVF-OH [VIR-284], for which the pIC50 in assay [1] is 6.55.

Take LEAIPMKIPPEFLFGKPFVF [VIR-590]: the pIC50 in assay [1] was 6.46.

For the origin of these results see patent US7655629B2, “Peptides and their use for the treatment of HIV infections” (priority 2002, dated 2010).
